Consider 5 compounds from paper PMC11944514, “Dengue Virus Inhibitors as Potential Broad-Spectrum Flavivirus Inhibitors” (Pharmaceuticals, 2025).

Series [1] in a line: xCELLigence real-time cytotoxicity assay (RTCA), CC50. In kind it is cell-based. The settings on record: African green monkey, Vero E6 cells, 24 h of exposure. The protocol: As compounds C1, C2, and C3 were relatively toxic (Figure 2A), we determined the selectivity index (SI) of the identified potential broad-spectrum flavivirus inhibitors. As the WST-1 assay tends to underestimate the toxic effect and is unable to detect cytostatic effects, the CC50 of the perspective compounds was measured using a more sensitive xCELLigence real-time cytotoxicity assay (RTCA). […] The full xCELLigence RTCA data are provided in the Supporting Information section (Figures S2 and S3). Thereafter, for each compound, the SI was calculated as a ratio of the CC50 of a compound against its EC50 [36].
Vero E6 cells were seeded on a 16-well E-plate (ACEA Biosciences, Inc., San Diego, CA, USA ) at a density of 5 × 10^3 cells/well and allowed to adhere overnight. On the next day, the studied compounds were added at the final concentrations ranging from 0.078 μM to 5 μM with a two-fold dilution step for compounds C1, C2, and C3, and at the final concentrations ranging from 1.56 μM to 50 μM with a two-fold dilution step for compounds C5 and C6; 0.01% DMSO was used as a solvent control. The cells were incubated for 5 days, and the signals between the electrodes (impedance) were recorded using an RTCA xCELLigence machine (Agilent Technologies, Inc., Santa Clara, CA, USA). […] The CC50 values were calculated using GraphPad Prism 10.0 for Windows, GraphPad Software, v. 10.4.1, Boston, MA, USA, www.graphpad.com (accessed on 16 February 2025).

The subject of series [2] is DENV2-Nanoluc. The experiment in a line: microbe, parasite or virus in culture. Format: cell-based. The settings on record: for EC50: Dengue virus, DENV2, Vero C1008, read-out: DENV2 EC50, μM.
Series [3] concerns ZIKV-Nanoluc. In words: microbe, parasite or virus in culture. Format: cell-based. Particulars: for EC50: Zika virus, Vero C1008, read-out: ZIKV EC50, μM.
Series [4] has as its system KUNV-Nanoluc. The experiment in a line: organism not typed. Format: cell-based. The settings on record: for EC50: Vero C1008, read-out: KUNV EC50, μM.
Series [5] relates to TBEV-Nanoluc. In words: microbe, parasite or virus in culture. Format: cell-based. Particulars: for EC50: Tick-borne encephalitis virus, Vero C1008, read-out: TBEV EC50, μM.
The subject of series [6] is DENV2-Nanoluc replicon. Format: cell-based.
Series [7] has as its system ZIKV-Nanoluc replicon. In kind it is cell-based.
The subject of series [8] is KUNV-Nanoluc replicon. In kind it is cell-based.
Series [9] relates to TBEV-Nanoluc replicon. In kind it is cell-based.
The test system of series [10] is WNV, DENV, and YFV. Particulars: cited from earlier work.
In series [11] the test system is ZIKV. More on the design: method as in PMID 32452420. The settings on record: Vero E6 cells; read-out: EC50, inhibition of ZIKV replication; cited from earlier work.
The test system of series [12] is Vero E6 cells. In words: WST-1 cell viability assay, Vero E6. Particulars: Vero E6, 48 h of exposure. In kind it is cell-based, African green monkey. The method, then: (§1) The cytotoxic effect of all studied compounds was assessed using the WST-1 assay after 48 h of exposure. […] This observation can be explained by the fact that the compound C8 is resazurin, phenoxazine dye, also known as Alamar Blue, which is subject to irreversible metabolic reduction to the resorufin by live mammalian cells. Thus, the cytotoxic effect of this compound cannot be assessed by the WST-1 assay correctly. Therefore, the C8 cytotoxicity was further assessed using the resazurin cell viability assay. This assay allowed us to avoid the interference between the tested compound and dye and obtain more reliable results for colored compounds.
(§2) Vero E6 or U2OS cells were seeded on the 96-well plate at a density of 1 × 10^4 cells/well and were allowed to adhere overnight. Next day, the cells were treated with the studied compounds at concentrations ranging from 1 to 100 μM with a ten-fold dilution step. As a solvent control, 0.01% DMSO (Sigma, St. Louis, MO, USA) was used. After 48 h of exposure, 10 μL of WST-1 (10 mg/mL) cell proliferation reagent (Roche, Cat. No. 11644807001) was added to each well, and plates were incubated at 37 °C, 5% CO2 for 2 h. The optical density was then measured at 450 nm using an Epoch Microplate Spectrophotometer (BioTek Instruments, Inc., Winooski, VT, USA). Four independent experiments were carried out in triplicates.

For series [13], the system named is U2OS cells. The experiment in a line: WST-1 cell viability assay, U2OS. In kind it is cell-based, human. The settings on record: 48 h of exposure. The protocol: as §2
(In general: Tetrazolium dyes change colour on reduction, which living cells bring about.)

The subject of series [14] is Vero E6 cells. In words: Resazurin cell viability assay, Vero E6. In kind it is cell-based, African green monkey. Particulars: Vero E6, 48 h of exposure. The protocol:
as §1
Vero E6 cells were seeded on a 96-well plate at a density of 1 × 10^4 cells/well and were allowed to adhere overnight. On the next day, the medium was replaced with a fresh complete growth medium containing the desired compound at final concentrations ranging from 1 μM to 100 μM with a ten-fold dilution step; 0.05% DMSO was used as a solvent control. […] Thereafter, the fluorescence was measured by a Synergy H1 Hybrid Multi-Mode Microplate Reader (BioTek Instruments, Inc., Winooski, VT, USA) using a 540 nm excitation and 590 nm emission filter. […]
(The colour change of resazurin is a common sign of viable cells or microbes.)

Each structure is given as a SMILES string. Entries after “also recorded” stand apart in the source; their conditions may differ.

What is called CC50 is the concentration giving 50% cytotoxicity. Higher therefore signals lower toxicity to the cells. As usually defined, the EC50 is the concentration that produces a half-maximal response.

The compound `O[C@H]1[C@H]2c3cc4c(cc3CN3CCC(=C[C@@H]1O)[C@H]23)OCO4` [Compound C1, (1S,17S,18S,19S)-5,7-dioxa-12-azapentacyclo[10.6.1.0^2,^10.0^4,^8.0^15,^19]nonadeca-2(10),3,8,15-tetraene-17,18-diol] returned a CC50 at 24 h in series [1] of 1.3 µM. In addition, in series [2], the “antiviral effect against DENV2-Nanoluc (initial screening)” value is “apparent dose-dependent antiviral effects” and the EC50 turned out to be 0.09 µM. In series [3], the “antiviral effect against ZIKV-Nanoluc (initial screening)” value is “completely inhibited the ZIKV-Nanoluc replication at the maximum tested concentration”, the “concentration at which a statistically significant antiviral effect appeared (ZIKV-Nanoluc)” value is 0.2 µM and the EC50 was 0.13 µM. For the same compound, in series [4], the “antiviral effect against KUNV-Nanoluc (initial screening)” value is reported as “apparent dose-dependent antiviral effect” and the EC50 is 0.17 µM. In addition, in [5], the “antiviral effect against TBEV-Nanoluc (initial screening)” value was “the ten-fold increase in concentration did not lead to any significant improvement of the antiviral effect”, the “concentration at which the antiviral effect appeared (TBEV-Nanoluc)” value came out at 0.2 µM and the EC50 worked out at 0.09 µM. In addition, in series [6], the “antiviral effect against DENV2-Nanoluc replicon” value is on record as “later addition (at 8 h post-transfection) of C1 had a lower antiviral effect compared to earlier”. In series [7], the “antiviral effect against ZIKV-Nanoluc replicon” value was “later addition (at 8 h post-transfection) of C1 had a lower antiviral effect compared to earlier”. For the same compound, in [8], the “antiviral effect against KUNV-Nanoluc replicon” value is recorded as “later addition (at 8 h post-transfection) of C1 had a lower antiviral effect compared to earlier”. Besides, the “antiviral effect against TBEV-Nanoluc replicon” value in [9] was “later addition (at 8 h post-transfection) of C1 had a lower antiviral effect compared to earlier”. For the same compound, the “reduction of viral titers of WNV, DENV, and YFV” value in series [10] is given as 10^2- to 10^4 fold. Further, in series [11], the EC50 is 390 nM.
As to `Nc1nc(N)c2c(Oc3ccc(F)cc3)cccc2n1` [Compound C4, 5-(4-fluorophenoxy)quinazoline-2,4-diamine], the CC50 at 24 h in series [1] was greater than 0.2 µM. The “antiviral effect against DENV2-Nanoluc (initial screening)” value in [2] is “negligible inhibition effect at the maximum tested concentration”. For the same compound, the “antiviral effect against ZIKV-Nanoluc (initial screening)” value in series [3] is “some tendency to decrease the ZIKV-Nanoluc activity at a concentration of 2 μM”. Also, the “antiviral effect against TBEV-Nanoluc (initial screening)” value in series [5] is “partially inhibit viral replication at the minimal tested concentration without an apparent dose-dependent effect”.
In turn, `O=[N+]([O-])c1c(Nc2ccccc2O)cc(Cl)c2nonc12` [Compound C5, 2-[(7-chloro-4-nitro-2,1,3-benzoxadiazol-5-yl)amino]phenol] displayed a CC50 at 24 h in series [1] of 12.8 µM. For the same compound, in series [2], the “antiviral effect against DENV2-Nanoluc (initial screening)” value was “apparent dose-dependent antiviral effects” and the EC50 is 2.91 µM. Besides, in series [3], the “antiviral effect against ZIKV-Nanoluc (initial screening)” value is reported as “at the 50 μM concentration, the virus activity was completely inhibited” and the EC50 worked out at 10.4 µM. Also, in [4], the “antiviral effect against KUNV-Nanoluc (initial screening)” value was “decreased the KUNV-Nanoluc activity only at the maximum tested concentrations” and the EC50 was determined as 8.9 µM. Also, in series [5], the “antiviral effect against TBEV-Nanoluc (initial screening)” value is given as “clear dose-dependent antiviral effect” and the EC50 amounted to 9.88 µM. Further, the “cytotoxic effect (WST-1 assay)” value in [12] is “moderate cytotoxic effect at 50 μM”.
Compound `Nc1ncnc2c1ncn2C1OC(CO)C(O)C1O` (stereo not shown) [Compound C7, 2-(6-amino-9H-purin-9-yl)-5-(hydroxymethyl)oxolane-3,4-diol] came in with a CC50 at 24 h in series [1] greater than 50 µM. Besides, the “antiviral effect against KUNV-Nanoluc (initial screening)” value in [4] is recorded as “slight inhibition effect was observed for compound C7 at the 50 μM concentration”. In series [5], the “antiviral effect against TBEV-Nanoluc (initial screening)” value was “clear dose-dependent antiviral effect” and the EC50 was 8.33 µM. The “cytotoxic effect (WST-1 assay)” value in [12] is on record as “no cytotoxic effect at the maximal tested concentration”. In series [13], the “cytotoxic effect (WST-1 assay)” value was “more toxic for the U2OS cells at the maximum tested concentration than in the Vero E6 cells”. Besides, in [6], the “antiviral effect against DENV2-Nanoluc replicon” value was “slight inhibition effect against DENV2-Nanoluc if it was added at 1 h post-transfection; also recorded: inactive against all studied flavivirus replicons at the maximal non-toxic concentration”. Also, in [7], the “antiviral effect against ZIKV-Nanoluc replicon” value was “inactive against all studied flavivirus replicons at the maximal non-toxic concentration”. Moreover, the “antiviral effect against KUNV-Nanoluc replicon” value in [8] is “inactive against all studied flavivirus replicons at the maximal non-toxic concentration”. Besides, in [9], the “antiviral effect against TBEV-Nanoluc replicon” value was “no inhibition of TBEV replication was observed; also recorded: inactive against all studied flavivirus replicons at the maximal non-toxic concentration”.
As to `O=c1ccc2[n+]([O-])c3ccc([O-])cc3oc-2c1.[Na+]` [Compound C8, sodium 3-oxo-3H-phenoxazin-10-ium-7,10-bis(olate)], the CC50 at 24 h in [1] was greater than 50 µM. In addition, the “antiviral effect against DENV2-Nanoluc (initial screening)” value in series [2] is on record as “negligible inhibition effect at the maximum tested concentration; also recorded: no antiviral effect against DENV2-Nanoluc in the tested concentrations range”. For the same compound, the “antiviral effect against TBEV-Nanoluc (initial screening)” value in series [5] was “partially inhibit viral replication at the minimal tested concentration without an apparent dose-dependent effect”. For the same compound, the “cytotoxic effect (WST-1 assay)” value in [12] is listed as “inverse dose-dependent effect”. In addition, the “cytotoxic effect (resazurin cell viability assay)” value in series [14] is given as “no cytotoxic effect”.
